Data published in patent US12410220B2, “Modulation of mammalian cell lineage by synthetic immodulins” (priority 2021, dated 2025).
Marks after values point to notes of the source that are not given here. Peptide text beside a SMILES is read from it.

Legend:
[1] = Ferric iron-binding assay of biotinylated immodulin peptides; conditions: N-terminally biotinylated peptide, 400 ng per well, 60 min room temperature; immX3AVD = 100
Text: N-terminally biotinylated versions of the peptides listed below were used in ferric iron-binding assays involving either an Alexa488-labeled streptavidin protocol (Binding Assay 1) or FITC-NTA assay (Binding Assay 2). Fluorescence was standardized to binding with immX3AVD control peptide (100) and the average of multiple experiments using both protocols is shown. P values are shown relative to the control immX3AVD peptide (**<0.05). D-amino acid residues are underlined in the sequences and the extension tripeptide of immX peptides is shown in bold font. Binding Assay 1 was done as follows: NTA coated 96-well plates (G-Biosciences, St. Louis, MO) were charged with ferric chloride and contacted with equimolar biotinylated peptide: streptavidin-A488 complex (400 ng peptide per well) for 60 min at room temperature, washed with phosphate-buffered saline (PBS) and read at 525 nm in a fluorescence counter. Binding Assay 2 was done as follows: Streptavidin coated 96-well plates (G-Biosciences, St. Louis, MO) were contacted with 400 ng peptide per well in PBS buffer for 60 minutes at room temperature, washed in PBS, then contacted with FITC-NTA (TRC, Toronto, Canada) complexed with equimolar ferric chloride (10× molar equivalent per well) for 60 min at room temperature, washed with PBS and read at 525 nm in a fluorescence counter.

[2] = target: T1, AA111-228 DNA-binding domain of RXR-alpha (RXRa-DBD) (Homo sapiens, UniProt P19793); assay: Experiment 4A binding to RXRa-DBD; conditions: 1 ug/well RXRa-DBD; 800 ng/well SA488-labelled peptide, 60 min; background subtracted
T1 construct: purchased Abcam, Cambridge, MA
T1 sequence (P19793 111-228): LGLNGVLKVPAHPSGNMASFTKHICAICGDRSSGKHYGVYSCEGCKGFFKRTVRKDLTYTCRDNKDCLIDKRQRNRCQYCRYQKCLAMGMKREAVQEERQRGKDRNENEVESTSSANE
Experimental: Experiment 4A. Binding of immodulin peptides to AA111-228 DNA-binding domain of RXR-alpha (RXRa-DBD). 1 ug/well recombinant RXRa-DBD (Abcam, Cambridge, MA) was adsorbed to wells of a 96-well plate for 60 minutes at room temperature, then blocked with 200 uL 1% bovine serum albumin (BSA) in PBS buffer overnight. Plate was washed and 800 ng/well Streptavidin-Alexa 488 conjugate (SA488)-labelled immX peptide was added. The plate was incubated for 60 min at room temperature, washed and counted in a standard fluorometer (excitation/emission 485/525 nm). Background (buffer alone) was subtracted.

[3] = test system: HFF-1 human fibroblast cell line; assay: Collagen-1 ELISA in HFF-1 dermal fibroblasts; format: cell-based; conditions: peptide 2 uM, 72 hour incubation
Experimental: Immodulin peptides have potential untility in the field of cosmetics. HFF-1 human fibroblast cell line was obtained from the American Type Culture Collection (ATCC). Cells were grown in a T-75 flask in DMEM Medium containing 10% fetal bovine serum and penicillin-streptomycin at 37° C. in a humidified, 5% CO2 incubator. Cells (100 µl, 2,000 cells/well) were plated in a 96-well plate and incubated overnight at 37° C. in a humidified, 5% CO2 incubator. Next day, 10 µl/well of compounds were added (quadruplicate wells). After 72 hour incubation with the compound, supernatants were collected for Collagen-1 ELISA assay and cell viability was measured in a luminometer after the addition of 100 IL/well CellTiterGlo reagent (Promega Inc, Madison, WI) as recommended by the manufacturer. Collagen stimulating activity of immodulin peptides in HFF-1 dermal fibroblasts: Peptides were added to cells at 2 uM. COL1 immunoreactivity was measured in the supernatants of cultured cells by ELISA using a rabbit monoclonal anti-COL1 primary antibody (Abcam, Cambridge, MA). Control (buffer) value of immunoreactivity was set to 100.

[4] = Experiment 4D binding to FITC-labelled heparin; conditions: biotinylated peptide 1 ug/well; 1 ug FITC-labelled heparin, 90 minutes
Experimental: (§1) Streptavidin-coated 96-well plates (G-Biosciences, St. Louis, MO) were pre-treated with biotinylated peptides [see Example 1 for key] at 1 ug/well, at room temperature for 60 minutes. The plate was washed with PBS buffer and then 1 ug FITC-labelled heparin or hyaluronic acid in 100 uL PBS buffer was added per well (all tests in quadruplicate). Incubation proceeded for 90 minutes at room temperature, followed by two PBS washes. The plate was read in a standard laboratory fluorometer (488/525 nm exitation/[…]) and the counts normalized for immX3 peptide binding=100. Values statistically above background are shown in bold font. **p<0.05 versus immX3AVD.

[5] = Experiment 4D binding to FITC-labelled hyaluronic acid; conditions: biotinylated peptide 1 ug/well; 1 ug FITC-labelled hyaluronic acid, 90 minutes
Experimental: as §1

[6] = test system: THP1-Dual monocytes; assay: THP1-Dual differentiation assay, immX3 peptide plus helper or inhibitor molecule; format: cell-based, human; conditions: immX3 peptide (330 nM) in all samples plus helper at the concentration given; immX3 with buffer = 100.0
Experimental: Mammalian cell differentiation assays using THP1-Dual monocytes reporter cell line (Invivogen Inc, San Diego, CA) seeded at 2×10e5 cells per well in 96-well plates and cultured at 37 degrees C. in RPMI-1640 growth medium plus 10% fetal bovine serum and 1% penicillin/streptomycin, then treated for 24 hours with either 100 ng/ml Phorbol 12-myristate 13-acetate (PMA protocol; Cayman Chemical Company, Ann Arbor, MI) or a mixture of IL-4 (100 ng/ml), GM-CSF (100 ng/ml), TNF-alpha (20 ng/ml) and ionomycin (200 ng/ml) (Cytokine protocol; Peprotech, Rocky Hill, NJ). Peptide (330 nM) was then added, and incubation continued for an additional 24 hours. Culture supernatants were then assayed for CCL22. Plates with adherent cells were washed with PBS and assayed for immunoreactivity of surface markers such as CD169, Clec9a, Clec12a or MHCII using fuorescent tag- or biotin-labeled anti-human antibodies purchased from Miltenyi Biotec (Auburn, CA) and a relevant secondary detection reagent, or by fluorescence counts.
The THP1-Dual cell differentiation assay was carried out as described above in Example 2, using immX3 peptide (330 nM) in all samples plus the indicated helper or inhibitor molecule. AU=arbitrary ELISA units. **p<0.01.

## CSCC[C@H](NC(=O)[C@H](CO)NC(=O)[C@@H](NC(=O)[C@H](CCC(=O)O)NC(=O)[C@H](CS)NC(=O)[C@H](CCC(N)=O)NC(=O)[C@H](CCCNC(=N)N)NC(=O)[C@H](CO)NC(=O)[C@H](Cc1c[nH]cn1)NC(=O)[C@H](Cc1ccc(O)cc1)NC(=O)[C@H](Cc1ccccc1)NC(=O)CNC(=O)[C@H](CC(N)=O)NC(=O)[C@@H](N)CCCCN)[C@@H](C)O)C(=O)N[C@@H](CC(=O)O)C(=O)NCC(=O)N[C@@H](CCC(=O)O)C(=O)N[C@@H](C)C(=O)NCC(=O)N[C@@H](CC(C)C)C(=O)N[C@@H](CS)C(=O)N[C@@H](Cc1c[nH]c2ccccc12)C(=O)O [imm1] (H-KNGFYHSRQCETSMDGEAGLCW-OH; N-terminus and C-terminus assumed)
[1]
  Ferric iron binding, fluorescence standardized to immX3AVD control peptide (100), Avg ± SD: 2.5 ± 1.6**
[2]
  Fluorescence, binding to RXRa-DBD: 670±85
[3]
  COL1 immunoreactivity in supernatants, control (buffer) set to 100: 98

## CSCC[C@H](NC(=O)[C@H](CCCCN)NC(=O)[C@H](CS)NC(=O)[C@H](CCC(N)=O)NC(=O)[C@H](CCCCN)NC(=O)[C@H](CC(C)C)NC(=O)[C@H](CC(N)=O)NC(=O)[C@H](Cc1ccc(O)cc1)NC(=O)[C@H](CC(C)C)NC(=O)CNC(=O)[C@H](Cc1c[nH]cn1)NC(=O)[C@@H](N)CCCCN)C(=O)N[C@@H](CO)C(=O)N[C@@H](CC(C)C)C(=O)N[C@@H](CC(N)=O)C(=O)NCC(=O)N[C@@H](CCC(N)=O)C(=O)N[C@@H](CCCNC(=N)N)C(=O)NCC(=O)N[C@@H](CCC(=O)O)C(=O)N[C@@H](CS)C(=O)N[C@@H](Cc1c[nH]c2ccccc12)C(=O)O [imm2]
[1]
  Ferric iron binding, fluorescence standardized to immX3AVD control peptide (100), Avg ± SD: 1.6 ± 0.8**
[2]
  Fluorescence, binding to RXRa-DBD: 2±38
[4]
  Heparin binding, counts normalized for immX3 peptide binding=100: 27.4 ± 22.9
[5]
  Hyaluronate binding, counts normalized for immX3 peptide binding=100: 3.1 ± 9.8
[3]
  COL1 immunoreactivity in supernatants, control (buffer) set to 100: 109

## GM-CSF: granulocyte-macrophage colony-stimulating factor; growth factor class
[6]
  CD169 (AU): 147.0 ± 15.3** AU

## Hyaluronic acid [reference compound]
[6]
  CD169 (AU): 110.5 ± 10.2 AU

## Leptin: Growth factor class
[6]
  CD169 (AU): 103.3 ± 11.6 AU

## Transferrin: Fe-binding protein
[6]
  CD169 (AU): 126.8 ± 9.3** AU

B1: CSF1: colony stimulating factor 1; growth factor class (protein, UniProt P09603 33-554, looked up)
Macrophage colony-stimulating …: EEVSEYCSHMIGSGHLQSLQRLIDSQMETSCQITFEFVDQEQLKDPVCYLKKAFLLVQDIMEDTMRFRDNTPNAIAIVQLQELSLRLKSCFTKDYEEHDKACVRTFYETPLQLLEKVKNVFNETKNLLDKDWNIFSKNCNNSFAECSSQDVVTKPDCNCLYPKAIPSSDPASVSPHQPLAPSMAPVAGLTWEDSEGTEGSSLLPGEQPLHTVDPGSAKQRPPRSTCQSFEPPETPVVKDSTIGGSPQPRPSVGAFNPGMEDILDSAMGTNWVPEEASGEASEIPVPQGTELSPSRPGGGSMQTEPARPSNFLSASSPLPASAKGQQPADVTGTALPRVGPVRPTGQDWNHTPQKTDHPSALLRDPPEPGSPRISSLRPQGLSNPSTLSAQPQLSRSHSSGSVLPLGELEGRRSTRDRRSPAEPEGGPASEGAARPLPRFNSVPLTDTGHERQSEGSFSPQLQESVFHLLVPSVILVLLAVGGLLFYRWRRRSHQEPQRADSPLEQPEGSPLTQDDRQVELPV
[6]
  CD169 (AU): 108.0 ± 32.3 AU
